According to PMC10058229, “Diverse cytomotive actins and tubulins share a polymerization switch mechanism conferring robust dynamics” (Science Advances, 2023):

Target: T1, BtubA*B (Prosthecobacter dejongeii, UniProt A0A7W7YIU5+A0A7W7YJ10, A0A7W7YIU5:R284G/A0A7W7YIU5:K286D/A0A7W7YIU5:F287G)
T1 construct: gene HNQ64_001272; BtubA M-loop triple mutant coexpressed with BtubB in E. coli C41(DE3); no tag mentioned; single protofilament polymer; Methods once print R286D instead of K286D
T1 sequence (A0A7W7YIU5 1-473 R284G/K286D/F287G): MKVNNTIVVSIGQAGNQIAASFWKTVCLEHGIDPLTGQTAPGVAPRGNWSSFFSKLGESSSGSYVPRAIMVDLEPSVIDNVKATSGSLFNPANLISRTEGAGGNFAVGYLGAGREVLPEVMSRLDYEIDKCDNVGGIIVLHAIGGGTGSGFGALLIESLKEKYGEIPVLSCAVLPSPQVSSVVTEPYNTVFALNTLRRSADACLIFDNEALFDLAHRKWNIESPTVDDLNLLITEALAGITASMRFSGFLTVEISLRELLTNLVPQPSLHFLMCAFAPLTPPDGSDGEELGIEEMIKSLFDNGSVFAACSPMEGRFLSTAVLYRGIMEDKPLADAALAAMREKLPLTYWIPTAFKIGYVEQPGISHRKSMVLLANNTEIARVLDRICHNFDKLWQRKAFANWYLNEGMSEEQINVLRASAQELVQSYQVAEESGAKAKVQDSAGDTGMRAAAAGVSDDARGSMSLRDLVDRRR
T1 sequence (A0A7W7YJ10 1-426): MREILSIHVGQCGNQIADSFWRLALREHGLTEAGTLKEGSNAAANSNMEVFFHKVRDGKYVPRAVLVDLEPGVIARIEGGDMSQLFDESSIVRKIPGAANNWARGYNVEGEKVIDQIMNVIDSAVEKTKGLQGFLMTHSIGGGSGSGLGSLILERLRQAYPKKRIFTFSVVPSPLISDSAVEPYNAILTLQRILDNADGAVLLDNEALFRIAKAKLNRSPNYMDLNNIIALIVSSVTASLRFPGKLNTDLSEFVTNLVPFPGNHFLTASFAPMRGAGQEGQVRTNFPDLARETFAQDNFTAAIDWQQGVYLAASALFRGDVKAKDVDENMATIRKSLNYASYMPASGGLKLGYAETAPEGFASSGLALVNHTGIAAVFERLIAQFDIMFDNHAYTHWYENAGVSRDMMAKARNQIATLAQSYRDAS
Test: polymerization seen by cryo-EM (~[…] Å map)
Assay type: biochemical
Details: 5 mM GTP, 5 mM magnesium acetate, pH 7.7, 20 °C; nucleotide not resolved

SMILES: Nc1nc2c(ncn2[C@@H]2O[C@H](COP(=O)(O)OP(=O)(O)OP(=O)(O)O)[C@@H](O)[C@H]2O)c(=O)[nH]1 [GTP]
- polymerization seen by cryo-EM (~8 Å map): BtubA*B polymerizes in the presence of GTP and GMPCPP to form straight single protofilaments
